{"source": "paper PMC7901654", "about": "“Bioisosteric Discovery of NPA101.3, a Second-Generation RET/VEGFR2 Inhibitor Optimized for Single-Agent Polypharmacology” (Journal of Medicinal Chemistry, 2020)", "assay_in_all_cases": "Cell growth curves, human cells", "format_in_all_cases": "cell-based", "key": {"MZ-CRC-1": {"test_system": "MZ-CRC-1", "settings": "MZ-CRC-1, MTC, RET M918T, read-out: IC50 (95% CI), growth inhibition", "procedure": "(§1) The IC50 dose for all human RET-negative cells was >100.0 nM, confirming compound selectivity (Figure S8 and Table S4).\n(§2) Nthy-ory-3-1 (10000 per well), TPC-1 (10000 per well), MZ-CRC-1 (100000 per well), TT (200000 per well), Lc-2/ad (100000 per well), BCPAP (10000 per well), 8505-C (10000 per well), PC-9 (10000 per well), A549 (10000 per well), CALU-1 (10000 per well), NIH3T3 RET/C634Y (10000 per well), and NIH3T3 HRAS/G12V (10000 per well) were seeded in six-well tissue culture plates. Cells were kept in 2% (TPC-1), 5% (Nthy-ori-3-1), or 10% (BCPAP, 8505-C, CALU-1, A549, PC-9, TT, MZ-CRC-1, and Lc-2/ad) fetal calf serum or in 2% (NIH3T3 RET/C634Y and HRAS/G12V) calf serum. Ba/F3 cells (200000 per well in 2 mL) were seeded in six-well tissue culture plates and kept in 10% fetal calf serum. The day after plating, different concentrations of the drug or vehicle were added to the medium and changed every 2–3 days. Cells were counted every day (Ba/F3), every 2 days (fibroblasts), or every 2–3 days (human cell lines). To compare cell growth, we performed an unpaired Student’s t test using the Instat software program (Graphpad Software Inc.). All P values were two-sided, and differences were considered to be statistically significant at P < 0.02. IC50 doses were calculated through a curve fitting analysis from last day of growth curves using the PRISM software program (Graphpad Software Inc.).\n(§3) Supplementary Table S4: NPA101.3 growth inhibitory effect on human cells.\n(§4) *MTC (medullary thyoroid carcinoma); PTC (papillary thyroid carcinoma); ATC\n(§5) (anaplastic thyroid carcinoma); LADC (lung adenocarcinoma)"}, "TT": {"test_system": "TT", "settings": "MTC, RET C634W, read-out: IC50 (95% CI), growth inhibition", "procedure": "as §1, §2, §3, §4, §5"}, "Lc-2/ad": {"test_system": "Lc-2/ad", "settings": "LADC, CCDC6-RET, read-out: IC50 (95% CI), growth inhibition", "procedure": "as §1, §2, §3, §4, §5"}}, "data": [{"compound": "CC(C)(C)c1cc(NC(=O)Cc2ccc(-n3cnc4cc(-c5ccc(S(C)(=O)=O)cc5)ccc43)cc2)no1", "note": "[NPA101.3]", "values": [{"measurement": "IC50", "setting": "MZ-CRC-1", "result": 2.21, "unit": "nM"}, {"measurement": "IC50", "setting": "TT", "result": 2.19, "unit": "nM"}, {"measurement": "IC50", "setting": "Lc-2/ad", "result": 3.6, "unit": "nM"}]}]}
